Among the data in patent US9382255B2, “Substituted pyrrolopyrimidinylamino-benzothiazolones as MKNK kinase inhibitors” (BAYER PHARMA AKTIENGESELLSCHAFT, priority 2012, dated 2016) are IC50 values, retold here.

For orientation: IC50 means the concentration at which inhibition is half-maximal. Read a high IC50 as weaker potency.

The assay addresses T1, human full-length MKNK1 (Homo sapiens, UniProt Q9BUB5, T385D).
T1 construct: GST (N); purchased Carna Biosciences 02-145; host or cells: insect cells (baculovirus expression system)
Briefly: MKNK1 kinase high ATP assay (TR-FRET). It counts as biochemical. The following applies: high ATP (2 mM final), 15 min preincubation with enzyme, GST-MKNK1 (T344D). Here is the method: MKNK1 Kinase High ATP Assay
MKNK1-inhibitory activity at high ATP of compounds of the present invention after their preincubation with MKNK1 was quantified employing the TR-FRET-based MKNK1 high ATP assay as described in the following paragraphs.
A recombinant fusion protein of Glutathione-S-Transferase (GST, N-terminally) and human full-length MKNK1 (amino acids 1-424 and T344D of accession number BAA 19885.1), expressed in insect cells using baculovirus expression system and purified via glutathione sepharose affinity chromatography, was purchased from Carna Biosciences (product no 02-145) and used as enzyme. As substrate for the kinase reaction the biotinylated peptide biotin-Ahx-IKKRKLTRRKSLKG (C-terminus in amide form) was used, which can be purchased e.g. from the company Biosyntan (Berlin-Buch, Germany).
For the assay 50 nL of a 100 fold concentrated solution of the test compound in DMSO was pipetted into a black low volume 384 well microtiter plate (Greiner Bio-One, Frickenhausen, Germany), 2 μL of a solution of MKNK1 in aqueous assay buffer [50 mM HEPES pH 7.5, 5 mM MgCL2, 1.0 mM dithiothreitol, 0.005% (v/v) Nonidet-P40 (Sigma)] was added and the mixture was incubated for 15 min at 22° C. to allow pre-binding of the test compounds to the enzyme before the start of the kinase reaction. Then the kinase reaction was started by the addition of 3 μL of a solution of adenosine-tri-phosphate (ATP, 3.3 mM=>final conc. in the 5 μL assay volume is 2 mM) and substrate (0.1 μM=>final conc. in the 5 μL assay volume is 0.06 μM) in assay buffer and the resulting mixture was incubated for a reaction time of 30 min at 22° C. The concentration of MKNK1 was adjusted depending of the activity of the enzyme lot and was chosen appropriate to have the assay in the linear range, typical concentrations were in the range of 0.003 μg/mL. The reaction was stopped by the addition of 5 μL of a solution of TR-FRET detection reagents (5 nM streptavidine-XL665 [Cisbio Bioassays, Codolet, France] and 1 nM anti-ribosomal protein S6 (pSer236)-antibody from Invitrogen [#44921G] and 1 nM LANCE EU-W1024 Labeled ProteinG [Perkin-Elmer, product no. AD0071]) in an aqueous EDTA-solution (100 mM EDTA, 0.1% (w/v) bovine serum albumin in 50 mM HEPES pH 7.5).
The resulting mixture was incubated for 1 h at 22° C. to allow the formation of complex between the phosphorylated biotinylated peptide and the detection reagents. Subsequently the amount of phosphorylated substrate was evaluated by measurement of the resonance energy transfer from the Eu-chelate to the streptavidine-XL. Therefore, the fluorescence emissions at 620 nm and 665 nm after excitation at 350 nm were measured in a TR-FRET reader, e.g. a Rubystar (BMG Labtechnologies, Offenburg, Germany) or a Viewlux (Perkin-Elmer). The ratio of the emissions at 665 nm and at […] was taken as the measure for the amount of phosphorylated substrate. The data were normalised (enzyme reaction without inhibitor=0% inhibition, all other assay components but no enzyme=100% inhibition).
A general note: In TR-FRET formats the signal depends on donor and acceptor labels being close together.

T1 sequence (Q9BUB5 1-424 isoform Q9BUB5-2 T344D): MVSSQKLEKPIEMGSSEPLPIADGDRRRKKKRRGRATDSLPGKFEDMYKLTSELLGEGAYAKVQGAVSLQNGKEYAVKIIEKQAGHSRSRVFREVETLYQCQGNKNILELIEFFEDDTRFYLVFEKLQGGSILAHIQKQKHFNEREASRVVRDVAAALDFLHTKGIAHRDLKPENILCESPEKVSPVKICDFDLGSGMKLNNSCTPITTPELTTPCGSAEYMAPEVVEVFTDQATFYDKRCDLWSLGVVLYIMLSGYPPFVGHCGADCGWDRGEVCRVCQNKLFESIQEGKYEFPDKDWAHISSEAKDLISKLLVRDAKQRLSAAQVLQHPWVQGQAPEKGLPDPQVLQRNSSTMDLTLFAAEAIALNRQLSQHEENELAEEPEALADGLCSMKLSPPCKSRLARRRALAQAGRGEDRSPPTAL

As for `C[C@@H]1COCCN1C(=O)c1cc2c(Nc3ccc4[nH]c(=O)sc4c3)ncnc2[nH]1` [Example 34], half-maximal inhibition (IC50) was put at 0.039 µM. That is a double-digit nanomolar value.

For `O=C(c1cc2c(Nc3ccc4[nH]c(=O)sc4c3)ncnc2[nH]1)N1CCOCC1` [Example 32, 6-{[6-(Morpholin-4-ylcarbonyl)-7H-pyrrolo[2,3-d]pyrimidin-4-yl]amino}-1,3-benzothiazol-2(3H)-one], the IC50 was found to be 0.02 µM.

Turning to `COc1cc2[nH]c(=O)sc2cc1Nc1ncnc2[nH]c(C(=O)O)cc12` [Example 26, 4-[(5-Methoxy-2-oxo-2,3-dihydro-1,3-benzothiazol-6-yl)amino]-7H-pyrrolo[2,3-d]pyrimidine-6-carboxylic acid], half-maximal inhibition (IC50) was put at 0.021 µM.

As to `CC(C)NC(=O)c1c[nH]c2ncnc(Nc3ccc4[nH]c(=O)sc4c3)c12` [Example 5, N-Isopropyl-4-[(2-oxo-2,3-dihydro-1,3-benzothiazol-6-yl)amino]-7H-pyrrolo[2,3-d]pyrimidine-5-carboxamide], the IC50 is 0.004 µM. Compared with the last molecule, the IC50 is about 5.2-fold lower.

`CCCc1[nH]c2ncnc(Nc3ccc4[nH]c(=O)sc4c3)c2c1CC` [Example 22, 6-[(5-Ethyl-6-propyl-7H-pyrrolo[2,3-d]pyrimidin-4-yl)amino]-1,3-benzothiazol-2(3H)-one]: 0.016 µM corresponded to half-maximal inhibition (IC50).

`CCc1[nH]c2ncnc(Nc3cc4sc(=O)[nH]c4cc3OC)c2c1C` [Example 13, 6-[(6-Ethyl-5-methyl-7H-pyrrolo[2,3-d]pyrimidin-4-yl)amino]-5-methoxy-1,3-benzothiazol-2(3H)-one] showed an IC50 of 0.006 µM.

On to `CN1CCN(C(=O)c2c[nH]c3ncnc(Nc4ccc5[nH]c(=O)sc5c4)c23)CC1` [Example 4, 6-({5-[(4-Methylpiperazin-1-yl)carbonyl]-7H-pyrrolo[2,3-d]pyrimidin-4-yl}amino)-1,3-benzothiazol-2(3H)-one], for which the IC50 worked out at 0.019 µM.

As for `Cc1cc2c(Nc3ccc4[nH]c(=O)sc4c3)ncnc2[nH]1` [Example 14, 6-[(6-Methyl-7H-pyrrolo[2,3-d]pyrimidin-4-yl)amino]-1,3-benzothiazol-2(3H)-one], 0.025 µM corresponded to half-maximal inhibition (IC50).

Turning to `O=c1[nH]c2ccc(Nc3ncnc4[nH]ncc34)cc2s1` [Example 7, 6-(1H-pyrazolo[3,4-d]pyrimidin-4-ylamino)-1,3-benzothiazol-2(3H)-one], the IC50 turned out to be 0.044 µM.

Consider `O=c1[nH]c2ccc(Nc3ncnc4[nH]c(Cl)cc34)cc2s1` [Example 16, 6-[(6-Chloro-7H-pyrrolo[2,3-d]pyrimidin-4-yl)amino]-1,3-benzothiazol-2(3H)-one], for which the IC50 is 0.011 µM. This IC50 is about 4-fold lower than that of the molecule before.

`O=C(O)c1c[nH]c2ncnc(Nc3ccc4[nH]c(=O)sc4c3)c12` [Example 3, 4-[(2-Oxo-2,3-dihydro-1,3-benzothiazol-6-yl)amino]-7H-pyrrolo[2,3-d]pyrimidine-5-carboxylic acid] gave an IC50 of 0.007 µM.

In turn, `O=c1[nH]c2ccc(Nc3ncnc4[nH]c(C#CCO)cc34)cc2s1` [Example 11, 6-{[6-(3-Hydroxyprop-1-yn-1-yl)-7H-pyrrolo[2,3-d]pyrimidin-4-yl]amino}-1,3-benzothiazol-2(3H)-one] displayed an IC50 of 0.006 µM.

Turning to `O=c1[nH]c2ccc(Nc3ncnc4[nH]c(Br)cc34)cc2s1` [Example 8, 6-[(6-Bromo-7H-pyrrolo[2,3-d]pyrimidin-4-yl)amino]-1,3-benzothiazol-2(3H)-one], half-maximal inhibition (IC50) was put at 0.005 µM.

On to `CC(C)Cc1[nH]c2ncnc(Nc3ccc4[nH]c(=O)sc4c3)c2c1C(C)C` [Example 21, 6-[(6-Isobutyl-5-isopropyl-7H-pyrrolo[2,3-d]pyrimidin-4-yl)amino]-1,3-benzothiazol-2(3H)-one], for which the IC50 was 0.032 µM. Compared with the last molecule, the IC50 is about 6.4-fold higher.

The molecule `Cc1c[nH]c2ncnc(Nc3ccc4[nH]c(=O)sc4c3)c12` [Example 15, 6-[(5-Methyl-7H-pyrrolo[2,3-d]pyrimidin-4-yl)amino]-1,3-benzothiazol-2(3H)-one] returned an IC50 of 0.009 µM.

Consider `COc1cc2[nH]c(=O)sc2cc1Nc1ncnc2[nH]cc(F)c12` [Example 28, 6-[(5-Fluoro-7H-pyrrolo[2,3-d]pyrimidin-4-yl)amino]-5-methoxy-1,3-benzothiazol-2(3H)-one], for which the IC50 came to 0.001 µM.

Consider `O=c1[nH]c2ccc(Nc3ncnc4[nH]c(S(=O)(=O)c5ccc(Cl)cc5)cc34)cc2s1` [Example 23, 6-({6-[(4-Chlorophenyl)sulfonyl]-7H-pyrrolo[2,3-d]pyrimidin-4-yl}amino)-1,3-benzothiazol-2(3H)-one], for which the midpoint of inhibition, the IC50, lay at 0.012 µM.

For the molecule `CCCc1[nH]c2ncnc(Nc3cc4sc(=O)[nH]c4cc3OC)c2c1CC` [Example 29, 6-[(5-Ethyl-6-propyl-7H-pyrrolo[2,3-d]pyrimidin-4-yl)amino]-5-methoxy-1,3-benzothiazol-2(3H)-one], the IC50 is 0.005 µM.

For `N#Cc1c[nH]c2ncnc(Nc3ccc4[nH]c(=O)sc4c3)c12` [Example 12, 4-[(2-Oxo-2,3-dihydro-1,3-benzothiazol-6-yl)amino]-7H-pyrrolo[2,3-d]pyrimidine-5-carbonitrile], the IC50 is 0.013 µM. Compared with the last molecule, the IC50 is about 2.6-fold higher.

Take `O=c1[nH]c2ccc(Nc3ncnc4[nH]c(CCCO)cc34)cc2s1` [Example 17, 6-{[6-(3-Hydroxypropyl)-7H-pyrrolo[2,3-d]pyrimidin-4-yl]amino}-1,3-benzothiazol-2(3H)-one]: the IC50 was found to be 0.009 µM.

On to `CCc1[nH]c2ncnc(Nc3ccc4[nH]c(=O)sc4c3)c2c1C` [Example 1, 6-[(6-Ethyl-5-methyl-7H-pyrrolo[2,3-d]pyrimidin-4-yl)amino]-1,3-benzothiazol-2(3H)-one], for which the IC50 is 0.027 µM.

Turning to `O=C(c1cc2c(Nc3ccc4[nH]c(=O)sc4c3)ncnc2[nH]1)N1CCCCC1` [Example 36, 6-{[6-(Piperidin-1-ylcarbonyl)-7H-pyrrolo[2,3-d]pyrimidin-4-yl]amino}-1,3-benzothiazol-2(3H)-one], the midpoint of inhibition, the IC50, lay at 0.014 µM.

`O=c1[nH]c2ccc(Nc3ncnc4[nH]cc(Br)c34)cc2s1` [Example 27, 6-[(5-Bromo-7H-pyrrolo[2,3-d]pyrimidin-4-yl)amino]-1,3-benzothiazol-2(3H)-one] gave a concentration for half-maximal inhibition (IC50) of 0.006 µM.

`CCOC(=O)c1cc2c(Nc3cc4sc(=O)[nH]c4cc3OC)ncnc2[nH]1` [Example 25, Ethyl 4-[(5-methoxy-2-oxo-2,3-dihydro-1,3-benzothiazol-6-yl)amino]-7H-pyrrolo[2,3-d]pyrimidine-6-carboxylate] showed an IC50 of 0.004 µM.

The molecule `Cc1ccc(S(=O)(=O)c2cc3c(Nc4ccc5[nH]c(=O)sc5c4)ncnc3[nH]2)cc1` [Example 24, 6-({6-[(4-Methylphenyl)sulfonyl]-7H-pyrrolo[2,3-d]pyrimidin-4-yl}amino)-1,3-benzothiazol-2(3H)-one] showed an IC50 of 0.005 µM.

In turn, `COc1cc2[nH]c(=O)sc2cc1Nc1ncnc2[nH]c(Br)cc12` [Example 18, 6-[(6-Bromo-7H-pyrrolo[2,3-d]pyrimidin-4-yl)amino]-5-methoxy-1,3-benzothiazol-2(3H)-one] registered a half-maximal inhibitory concentration (IC50) of 0.018 µM.

As for `O=C(O)c1cc2c(Nc3ccc4[nH]c(=O)sc4c3)ncnc2[nH]1` [Example 30, 4-[(2-Oxo-2,3-dihydro-1,3-benzothiazol-6-yl)amino]-7H-pyrrolo[2,3-d]pyrimidine-6-carboxylic acid], it took 0.036 µM to reach half-maximal inhibition (IC50). Compared with the last molecule, the IC50 is about 2-fold higher.

With `O=c1[nH]c2ccc(Nc3ncnc4[nH]cc(F)c34)cc2s1` [Example 2, 6-[(5-Fluoro-7H-pyrrolo[2,3-d]pyrimidin-4-yl)amino]-1,3-benzothiazol-2(3H)-one], the IC50 turned out to be 0.027 µM.
